From patent US12077503B2, “Substituted cyclic amides and their use as herbicides” (FMC CORPORATION, priority 2015, dated 2024)

Experiments:
Type in all cases: in vivo
[1] = system: Galium (catchweed bedstraw, Galium aparine); experiment: Test A postemergence
Text: (§1) Seeds of plant species selected from barnyardgrass (Echinochloa crus-galli), Kochia (Kochia scoparia), ragweed (common ragweed, Ambrosia elatior), ryegrass, Italian (Italian ryegrass, Lolium multiflorum), crabgrass, large (Digitaria sanguinalis), giant foxtail (Setaria faberii), green foxtail (Setaria viridis), morningglory (Ipomoea spp.), pigweed (Amaranthus retroflexus), velvetleaf (Abutilon theophrasti), wheat (Triticum aestivum), and corn (Zea mays) were planted into a blend of loam soil and sand and treated preemergence with a directed soil spray using test chemicals formulated in anon-phytotoxic solvent mixture which included a surfactant.
(§2) At the same time, plants selected from these crop and weed species and also blackgrass (Alopecurus myosuroides), and Galium (catchweed bedstraw, Galium aparine) were planted in pots containing the same blend of loam soil and sand and treated with postemergence applications of test chemicals formulated in the same manner. Plants ranged in height from 2 to 10 cm and were in the one- to two-leaf stage for the postemergence treatment. Treated plants and untreated controls were maintained in a greenhouse for approximately 10 d, after which time all treated plants were compared to untreated controls and visually evaluated for injury. Plant response ratings, summarized in Table A, are based on a 0 to 100 scale where 0 is no effect and 100 is complete control. A dash (-) response means no test result.

[2] = system: wheat (Triticum aestivum); experiment: Test A postemergence
Text: as §1, §2

[3] = system: blackgrass (Alopecurus myosuroides); experiment: Test A postemergence
Text: as §1, §2

[4] = system: ragweed (common ragweed, Ambrosia elatior); experiment: Test A postemergence
Text: as §1, §2

[5] = system: barnyardgrass (Echinochloa crus-galli); experiment: Test A postemergence
Text: as §1, §2

[6] = system: giant foxtail (Setaria faberii); experiment: Test A postemergence
Text: as §1, §2

[7] = system: ryegrass, Italian (Italian ryegrass, Lolium multiflorum); experiment: Test A postemergence
Text: as §1, §2

corn (Zea mays) = experiment: Test A postemergence
Text: as §1, §2

[8] = system: pigweed (Amaranthus retroflexus); experiment: Test A postemergence
Text: as §1, §2

Kochia (Kochia scoparia) [9] = experiment: Test A postemergence
Text: as §1, §2

[10] = system: ragweed (common ragweed, Ambrosia elatior); experiment: Test A preemergence
Text: as §1, §2

[11] = system: barnyardgrass (Echinochloa crus-galli); experiment: Test A preemergence
Text: as §1, §2

[12] = system: giant foxtail (Setaria faberii); experiment: Test A preemergence
Text: as §1, §2

[13] = system: ryegrass, Italian (Italian ryegrass, Lolium multiflorum); experiment: Test A preemergence
Text: as §1, §2

[14] = system: pigweed (Amaranthus retroflexus); experiment: Test A preemergence
Text: as §1, §2

Kochia (Kochia scoparia) [15] = experiment: Test A preemergence
Text: as §1, §2

rice (Oryra sativa) = experiment: Test B flooded paddy test; details: Flood, 250 g ai/ha; 0 to 100 scale where 0 is no effect and 100 is complete control; 13 to 15 d
Procedure: (§3) Plant species in the flooded paddy test selected from rice (Oryra sativa), sedge, umbrella (small-flower umbrella sedge, Cyperus difformis), ducksalad (Heteranthera limosa), and barnyardgrass (Echinochloa crus-galli) were grown to the 2-leaf stage for testing. At time of treatment, test pots were flooded to 3 cm above the soil surface, treated by application of test compounds directly to the paddy water, and then maintained at that water depth for the duration of the test. Treated plants and controls were maintained in a greenhouse for 13 to 15 d, after which time all species were compared to controls and visually evaluated. Plant response ratings, summarized in Table B, are based on a scale of 0 to 100 where 0 is no effect and 100 is complete control. A dash (-) response means no test result.

[16] = system: sedge, umbrella (small-flower umbrella sedge, Cyperus difformis); experiment: Test B flooded paddy test; details: Flood, 250 g ai/ha; 0 to 100 scale where 0 is no effect and 100 is complete control; 13 to 15 d
Procedure: as §3

[17] = system: barnyardgrass (Echinochloa crus-galli); experiment: Test B flooded paddy test; details: Flood, 250 g ai/ha; 0 to 100 scale where 0 is no effect and 100 is complete control; 13 to 15 d
Procedure: as §3

[18] = system: ducksalad (Heteranthera limosa); experiment: Test B flooded paddy test; details: Flood, 250 g ai/ha; 0 to 100 scale where 0 is no effect and 100 is complete control; 13 to 15 d
Procedure: as §3

[19] = 500 g ai/ha, postemergence, 0 to 100 scale, 0 no effect, 100 complete control
[20] = Postemergence, 125 g ai/ha, visual injury, 0 to 100 scale (0 no effect, 100 complete control), approx. 10 d
[21] = 125 g ai/ha, preemergence, 0 to 100 scale (0 no effect, 100 complete control)
[22] = Preemergence, 500 g ai/ha, 0 is no effect, 100 is complete control

For `Cc1ccc(C2CNC(=O)C2C(=O)Nc2ccccc2F)cc1F` (racemic) [Compound 368], the “Plant response rating, Galium” value [1, 19] was 50, the “Plant response rating, Galium” value [1, 20] was 30 and the “Plant response rating, Wheat” value [2, 19] was 30. The “Plant response rating, Wheat” value [2, 20] was 0, the “Plant response rating, Blackgrass” value [3, 19] was 60 and the “Plant response rating, Blackgrass” value [3, 20] was 0. For the same molecule, the “Plant response rating, Ragweed” value [4, 19] was 30, the “Plant response rating, Ragweed” value [4, 20] was 0 and the “Plant response rating, Barnyardgrass” value [5, 19] was 90. For the same molecule, the “Plant response rating, Barnyardgrass” value [5, 20] was 90, the “Plant response rating, Foxtail, Giant” value [6, 19] was 80 and the “Plant response rating, Foxtail, Giant” value [6, 20] was 20. For the same molecule, the “Plant response rating, Ryegrass, Italian” value [7, 19] was 50, the “Plant response rating, Ryegrass, Italian” value [7, 20] was 20 and the “Plant response rating, Corn” value (corn (Zea mays); [19]) was 20. The “Plant response rating, Corn” value (corn (Zea mays); [20]) was 0, the “Plant response rating, Pigweed” value [8, 19] was 0 and the “Plant response rating, Pigweed” value [8, 20] was 0. The “Plant response rating, Kochia” value (Kochia (Kochia scoparia) [9]; [19]) was 0, the “Plant response rating, Kochia” value (Kochia (Kochia scoparia) [9]; [20]) was 0 and the “Plant response rating, Ragweed” value [10, 21] was 30. For the same molecule, the “Ragweed plant response rating (0 to 100 scale)” value [10, 22] was 60, the “Plant response rating, Barnyardgrass” value [11, 21] was 90 and the “Barnyardgrass plant response rating (0 to 100 scale)” value [11, 22] was 90. The “Plant response rating, Foxtail, Giant” value [12, 21] was 90, the “Foxtail, Giant plant response rating (0 to 100 scale)” value [12, 22] was 90 and the “Plant response rating, Ryegrass, Italian” value [13, 21] was 0. The “Ryegrass, Italian plant response rating (0 to 100 scale)” value [13, 22] was 30, the “Plant response rating, Pigweed” value [14, 21] was 0 and the “Pigweed plant response rating (0 to 100 scale)” value [14, 22] was 0. For the same molecule, the “Plant response rating, Kochia” value (Kochia (Kochia scoparia) [15]; [21]) was 0, the “Kochia plant response rating (0 to 100 scale)” value (Kochia (Kochia scoparia) [15]; [22]) was 30 and the “Plant response rating, Rice” value (rice (Oryra sativa)) was 15. For the same molecule, the “Plant response rating, Sedge, Umbrella” value [16] was 0, the “Plant response rating, Barnyardgrass” value [17] was 55 and the “Plant response rating, Ducksalad” value [18] was 100.
